Consider eleven molecules from patent US20160346295A1, “Selective Estrogen Receptor Modulators With Short Half-Lives and Uses Thereof” (REPROS THERAPEUTICS INC., priority 2012, published 2016).

For data set [1] the following is noted: blood plasma; cited from earlier work.
In data set [2] the test system is rodent, baboon, rabbit and dog models. In words: Animal safety pharmacology studies. The class given is in vivo.
The conditions of data set [3]: human, in vivo, po. On the procedure:
A clinical study to estimate the pharmacokinetic (PK) profile of enclomiphene (trans-clomiphene) following single-dose and steady-state doses administered orally. 52 adult males between 18 and 75 years of age with total serum testosterone level<250 ng/dl or between 250 to 300 ng/dl and FSH/LH levels within the normal range, were randomly assigned to one of the following five treatment groups: (i) 12.5 mg enclomiphene/day (ii) 25 mg enclomiphene/day (iii) 50 mg enclomiphene/day (trans-clomiphene) (iv) Androgel® (1% topical testosterone applied daily) or (v) placebo. Enclomiphene citrate was provided as 12.5 mg capsules and orally administered once (12.5 mg arm) twice (25 mg arm) or four times (50 mg arm) per day for 14 consecutive days. Single-dose and steady-state PK assessments were preformed in a subset of these males following the first (Day 1) and last (Day 14) dose. […] Pre-dose plasma enclomiphene concentrations were also measured on Day 11 using a single blood sample. […] PK parameters were calculated using noncompartmental methods for subjects randomized to enclomiphene. The accumulation ratio, defined as the AUC0-24 on Day 14, divided by the AUC0-24 value on Day 1 was calculated.
The accumulation index for each enclomiphene dose group was calculated based on the arithmetic mean of the individual ratio of AUC(0-24) on Day 14 divided by AUC(0-24) on Day 1. […]

The test system of data set [4] is adult human males with secondary hypogonadism. In words: One year open label extension study, long term oral trans-clomiphene 12.5 mg daily.
Where [5] appears, read: majority or all of the timepoints.

In the case of `COc1ccc(-c2sc3cc(O)ccc3c2Oc2ccc(OCCN3CCCCC3)cc2)cc1` [Arzoxifene], the Half-Life in data set [1] is 30 h.
For the molecule `CCN(CC)CCOc1ccc(C(=C(Cl)c2ccccc2)c2ccccc2)cc1` [Clomid], the Half-Life in data set [1] is 120 to 170 h.
In the case of `CC/C(=C(/c1ccc(OCCN(C)C)cc1)c1cccc(O)c1)c1ccccc1` [Droloxifene, E-1-[4′-(2-dimethylaminoethoxy)phenyl]-1-(3′-hydroxyphenyl)-2-phenyl-1-butene], in data set [1], the Half-Life is 24 h.
In the case of `CCN(CC)CCOc1ccc(/C(=C(\Cl)c2ccccc2)c2ccccc2)cc1` [Enclomiphene, trans-clomiphene], in data set [2], the “adverse effects in the central nervous, respiratory or cardiovascular systems” value is “no adverse effects”. In data set [3], the “half life of enclomiphene based on the PK data obtained” value is roughly 10.5 h. In addition, in data set [4] (12.5 mg daily oral), the “other questionnaires of sexual function (DISF-SR II (M), MSDS)” value was “no concomitantly significant changes” and the “overall mean increases in total serum testosterone from baseline to 1 year” value is given as “statistically significant”. The “subjects who experienced serious adverse effects (SAEs)” value in data set [4] (12.5 mg daily oral up to one year) is on record as 5%. Moreover, the “subjects who experienced at least one adverse event considered related to the study drug” value in data set [4] (19/101 subjects) worked out at 18.8%. The “subjects with mean total serum testosterone levels within the normal reference range” value in data set [4] (at 1 year, normal range 300-1040 ng/dl, 12.5 mg daily oral) amounted to 62.5%. For the same molecule, in data set [4] (during the study), the “discontinuation due to a reduction in visual acuity” value is recorded as “No subjects were discontinued”; the “hematology, blood chemistry, urinalysis, vital signs, physical exam, PSA values, ECG readings” value is “no clinically relevant changes”; the “subjects discontinued from the study due to AEs” value is “Nine”; the “subjects who experienced at least one adverse event” value stood at 51.5%. The “subjects with events considered severe” value in data set [4] (during the study) is recorded as “nine”. Also, the “libido, libido component of IIEF questionnaire” value in data set [4] (from baseline at months 4, 6 and 12) is given as “Statistically significant improvements”. In addition, in data set [4] (setting [5]), the DHT/testosterone ratio change entry is reported as “Statistically significant increases”, the FSH change entry is on record as “Statistically significant increases”, the LH change entry is listed as “Statistically significant increases” and the “dihydrotestosterone (DHT) change” value is recorded as “Statistically significant increases”. Besides, in data set [4] (setting [5]), the estradiol change result is on record as “Statistically significant increases”, the “high-density lipoprotein cholesterol (HDL-C) change from baseline” value was “Statistically significant decreases”, the prolactin change entry is given as “statistically significant decreases” and the “sex hormone binding globulin (SHBG) change” value was “Statistically significant increases”. In data set [4] (setting [5]), the “total cholesterol (TC) change from baseline” value was “Statistically significant decreases” and the “triglycerides change from baseline” value is recorded as “Statistically significant decreases”. The “testicular size, significance of increase” value in data set [4] (orchidometer) is “statistically significant increase was observed at Month 6 only”.
In the case of `CC/C(=C(\c1ccc(I)cc1)c1ccc(OCCN2CCCC2)cc1)c1ccccc1` [Idoxifene], in data set [1], the Half-Life was 3 weeks.
As for `Oc1ccc2c(c1)CC[C@H](c1ccccc1)[C@@H]2c1ccc(OCCN2CCCC2)cc1` [Lasofoxifene], the Half-Life in data set [1] is 140 h.
With `COc1ccc2c(c1)OC(C)(C)[C@@H](c1ccccc1)[C@@H]2c1ccc(OCCN2CCCC2)cc1` [Levormeloxifene, (−)-3R,4R-trans-7-methoxy-2,2-dimethyl-3-phenyl-4-{4-[2-(pyrrolidin-1-yl)ethoxy]phenyl} chromane], the Half-Life in data set [1] was 24 h.
`COc1ccc2c(c1)OC(C)(C)C(c1ccccc1)C2c1ccc(OCCN2CCCC2)cc1` (stereo not shown) [Ormeloxifene]: in data set [1], the Half-Life was 170 h.
With `OCCOc1ccc(/C(=C(/CCCl)c2ccccc2)c2ccccc2)cc1` [Ospemifene], in data set [1], the Half-Life was 26 h.
As to `O=C(c1ccc(OCCN2CCCCC2)cc1)c1c(-c2ccc(O)cc2)sc2cc(O)ccc12` [Raloxifene, 6-hydroxy-2(4-hydroxyphenyl)-3-[4-(2-piperdinoethoxy)benzoyl]benzo[b]thiophene], the Half-Life in data set [1] was 27 h.
Take `CC/C(=C(\c1ccccc1)c1ccc(OCCN(C)C)cc1)c1ccccc1` [Tamoxifen]: in data set [1], the Half-Life is 120 to 170 h.
